Laboratory results published in patent US20240368112A1, “BENZYLTHIOPHENE DERIVATIVES” (Rosalind Franklin University of Medicine & Science, priority 2021, published 2024).
pIC50: −log10 of the molar value.

Assays:
parental GBM cells = experiment: Proliferation of parental (empty vector) GBM cells, Incucyte live cell analysis; type: cell-based; conditions: parental (EV) GBM cells
STAT3-KO GBM cells = experiment: Proliferation of STAT3-knockout GBM cells, Incucyte live cell analysis; type: cell-based
STAT1 = STAT1 (Homo sapiens (Human), UniProt P42224); experiment: IFN-induced STAT1 phosphorylation in GBM cells (western blotting); type: cell-based
STAT1, sequence (P42224 whole entry): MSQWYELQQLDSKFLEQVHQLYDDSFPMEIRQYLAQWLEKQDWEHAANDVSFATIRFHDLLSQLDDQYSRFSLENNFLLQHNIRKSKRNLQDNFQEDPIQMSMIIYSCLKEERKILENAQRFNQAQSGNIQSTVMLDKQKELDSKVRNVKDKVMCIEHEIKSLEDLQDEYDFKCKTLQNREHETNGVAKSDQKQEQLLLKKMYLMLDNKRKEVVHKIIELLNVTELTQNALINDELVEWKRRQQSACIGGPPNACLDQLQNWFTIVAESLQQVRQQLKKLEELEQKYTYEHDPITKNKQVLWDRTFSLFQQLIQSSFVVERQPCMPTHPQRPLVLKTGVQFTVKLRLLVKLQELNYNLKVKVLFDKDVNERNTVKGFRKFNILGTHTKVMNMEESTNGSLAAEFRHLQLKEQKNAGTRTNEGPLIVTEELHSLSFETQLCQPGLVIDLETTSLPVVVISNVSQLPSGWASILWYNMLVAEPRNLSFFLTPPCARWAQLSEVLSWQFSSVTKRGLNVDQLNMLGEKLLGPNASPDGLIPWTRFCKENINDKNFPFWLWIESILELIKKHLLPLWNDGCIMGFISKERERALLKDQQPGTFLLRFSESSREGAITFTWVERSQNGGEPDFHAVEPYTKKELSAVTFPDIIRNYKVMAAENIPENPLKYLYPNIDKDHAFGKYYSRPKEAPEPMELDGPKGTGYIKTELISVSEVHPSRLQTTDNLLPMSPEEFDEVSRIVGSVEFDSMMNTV

LN299 GBM cells = experiment: Antiproliferative activity, CellTiter Glo assay, LN299 GBM cells; type: cell-based; conditions: 72 h, unit misprinted as 'and', read-out: IC50 (proliferation)
MT330 glioma xenografts = experiment: Orthotopic MT330 glioma xenografts in mice, bioluminescent imaging; type: in vivo; conditions: 20 mg/Kg in DMSO, into the peritoneum three times per week, female mice, BLI
Method: BLI pictures were taken at Day 21.
In brief, 10^6 luciferase-expressing MT330 GBM cells were injected orthotopically into the brains of female […] mice. […] Tumor growth was monitored by BLI two times per week as we have previously described.

MCF7 breast cancer cells = experiment: MTS cell viability assay in MCF7 breast cancer cells; type: cell-based; conditions: 72 hours treatment, concentration not given
Method: MTS assay was used to determine the cell viability for all compounds tested. Computational docking scores were used to evaluate potential for STAT 3 inhibition (FIG. 9 and Table 3). MCF7 breast cancer cells were grown until 80-90% confluence. Cells were then transferred to a Costar 96-well plate with about 3000 cells per well. Cells were incubated for 24 hours. After incubation cells were treated with appropriate compounds and concentration for 72 hours. Twenty microliters of MTS solution was added to each well and incubated for 2 hours. The plate was then analyzed using […].

MT300 GBM cells = experiment: Antiproliferative activity, CellTiter Glo assay, MT300 GBM cells; type: cell-based; conditions: 72 h, read-out: IC50 (proliferation)
STAT3 = STAT3 (Homo sapiens (Human), UniProt P40763); experiment: Inhibition of IFN-induced STAT3 phosphorylation in GBM cells (western blotting); type: cell-based
STAT3, sequence (P40763 whole entry): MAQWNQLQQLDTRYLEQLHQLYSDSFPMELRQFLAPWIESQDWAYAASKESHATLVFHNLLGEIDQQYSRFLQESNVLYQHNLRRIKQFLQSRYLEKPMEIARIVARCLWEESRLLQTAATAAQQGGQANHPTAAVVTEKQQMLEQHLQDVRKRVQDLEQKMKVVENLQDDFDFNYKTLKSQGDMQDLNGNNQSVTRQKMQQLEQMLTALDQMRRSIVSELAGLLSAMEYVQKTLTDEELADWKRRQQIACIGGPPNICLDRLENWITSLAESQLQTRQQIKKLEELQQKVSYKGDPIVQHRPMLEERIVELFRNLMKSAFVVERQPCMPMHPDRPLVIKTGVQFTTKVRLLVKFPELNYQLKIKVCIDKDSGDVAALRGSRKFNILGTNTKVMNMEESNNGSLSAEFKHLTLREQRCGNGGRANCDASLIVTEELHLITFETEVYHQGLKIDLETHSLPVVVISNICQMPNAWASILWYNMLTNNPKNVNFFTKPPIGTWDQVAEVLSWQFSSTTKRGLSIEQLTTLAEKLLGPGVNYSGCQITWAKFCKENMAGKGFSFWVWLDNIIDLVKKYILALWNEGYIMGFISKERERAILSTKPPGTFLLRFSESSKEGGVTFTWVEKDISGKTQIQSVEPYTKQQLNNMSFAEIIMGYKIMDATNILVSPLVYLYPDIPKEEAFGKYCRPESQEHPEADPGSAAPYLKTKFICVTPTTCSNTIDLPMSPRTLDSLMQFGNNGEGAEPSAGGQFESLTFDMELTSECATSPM

N#Cc1cc(Cc2ccccc2)sc1NC(=O)COc1ccccc1 [Compound 1, N-(5-benzyl-3-cyanothiophen-2-yl)-2-phenoxyacetamide]
Antiproliferative effect (parental GBM cells): sensitive | Antiproliferative effect (STAT3-KO GBM cells): resistant | Effect on STAT1 phosphorylation (STAT1): no effect | pIC50 (LN299 GBM cells): 7.02 | Effect on orthotopic GBM tumor xenografts (MT330 glioma xenografts): markedly reduced | Percent inhibition (MCF7 breast cancer cells): 28.06% | pIC50 (MT300 GBM cells): 7.07

N#Cc1cc(Cc2ccccc2)sc1NC(=O)c1cc2ccccc2o1 [Compound 5, N-(5-benzyl-3-cyanothiophen-2-yl)benzofuran-2-carboxamide]
Inhibition of STAT3 phosphorylation (STAT3): potently block STAT3 phosphorylation at submicromolar levels | Effect on STAT1 phosphorylation (STAT1): no effect | Percent inhibition (MCF7 breast cancer cells): 65.67%

N#Cc1cc(Cc2ccccc2)sc1NC(=O)COc1cccc(C(F)(F)F)c1 [Compound 6, N-(5-benzyl-3-cyanothiophen-2-yl)-2-(3-(trifluoromethyl)phenoxy)acetamide]
Percent inhibition (MCF7 breast cancer cells): 51.00%

CC(C)(Oc1ccccc1)C(=O)Nc1sc(Cc2ccccc2)cc1C#N [Compound 7, N-(5-benzyl-3-cyanothiophen-2-yl)-2-methyl-2-phenoxypropanamide]
Inhibition of STAT3 phosphorylation (STAT3): potently block STAT3 phosphorylation at submicromolar levels | Effect on STAT1 phosphorylation (STAT1): no effect | Percent inhibition (MCF7 breast cancer cells): 23.33%
